Two compounds from patent US4341768A, “Antibiotic compounds” (priority 1981, dated 1982) can be followed below.

Bridge positions count the residues as written; N and C are the ends. Square brackets hold non-standard residues; d marks the D form. Peptide text beside a SMILES is read from it. * marks the point of attachment. X1 = CCC(C)CCCCC(O)CC(=O)*; dDab = NCC[C@@H](N)C(=O)O; Dab = NCC[C@H](N)C(=O)O

A short description of series [1]: Acute toxicity in mice. In kind it is in vivo. The conditions noted are these: for LD50: mouse, in vivo. As for the experimental part:
The acute toxicities of Bu-2470 A and B1 were determined in mice by intravenous(iv) and subcutaneous (sc) routes. Colistin was tested comparatively as a reference compound.

Series [2] can be described thus: Solubility.

With `CC(C)C[C@@H]1NC(=O)[C@H](CCN)NC(=O)[C@H](CCN)NC(=O)[C@H](CC(C)C)NC(=O)[C@@H](Cc2ccccc2)NC(=O)[C@H](CCN)NC(=O)[C@@H](NC(=O)[C@H](N)CCN)CCNC1=O` [Bu-2470A] (H-[dDab][Dab][Dab][dF]L[Dab][Dab]L; lactam 2-C), the “Acute toxicity relative to colistin” value in series [1] (iv route) was “less toxic than colistin”; in series [1] (sc route) it was “more toxic”. Further, the LD50 is 35 mg/kg in series [1] (intravenous) and 56 mg/kg in series [1] (sc, subcutaneous). Also, the “Solubility in aqueous lower alcohols, aqueous dioxane, dimethylsulfoxide and dimethylformamide” value in series [2] (aqueous lower alcohols, aqueous dioxane, dimethylsulfoxide, dimethylformamide) was “readily soluble”. For the same compound, the “Solubility in lower alcohols” value in series [2] (lower alcohols) was “slightly soluble”. In series [2] (other organic solvents), the “Solubility in other organic solvents” value was “practically insoluble”. Moreover, the Solubility in water entry in series [2] (water over a wide pH range) is reported as “readily soluble”.
As to `CCC(C)CCCCC(O)CC(=O)N[C@H](CCN)C(=O)N[C@H]1CCNC(=O)[C@H](CC(C)C)NC(=O)[C@H](CCN)NC(=O)[C@H](CCN)NC(=O)[C@H](CC(C)C)NC(=O)[C@@H](Cc2ccccc2)NC(=O)[C@H](CCN)NC1=O` (stereo partly drawn) [Bu-2470B1] (X1-[dDab][Dab][Dab][dF]L[Dab][Dab]L; lactam 2-C), the “Acute toxicity relative to colistin” value in series [1] (iv route) and in series [1] (sc route) was “less toxic than colistin” each time. Further, the LD50 in series [1] (intravenous) was 35 mg/kg; in series [1] (sc, subcutaneous), 280 mg/kg.
